{
  "source": "the NIST ThermoML archive (doi:10.1021/je050443o)",
  "assay": "wn = mass fraction of the nth substance listed",
  "conditions": "101.33 kPa, Liquid",
  "note": "± gives the expanded uncertainty stated by the source.",
  "data": [
    {"compound": "O=S(=O)(O)O", "note": "[sulfuric acid] + O", "values": [
      {"measurement": "mass density", "setting": "293.15 K, w1 = 0.1", "result": "1066.2 ± 1.2", "unit": "kg/m3"},
      {"measurement": "viscosity", "setting": "293.15 K, w1 = 0.1", "result": "1.231 ± 0.028", "unit": "mPa·s"},
      {"measurement": "mass density", "setting": "293.15 K, w1 = 0.2", "result": "1139.5 ± 1.3", "unit": "kg/m3"},
      {"measurement": "viscosity", "setting": "293.15 K, w1 = 0.2", "result": "1.55 ± 0.035", "unit": "mPa·s"},
      {"measurement": "mass density", "setting": "293.15 K, w1 = 0.3", "result": "1218.3 ± 1.4", "unit": "kg/m3"},
      {"measurement": "viscosity", "setting": "293.15 K, w1 = 0.3", "result": "2.009 ± 0.044", "unit": "mPa·s"},
      {"measurement": "mass density", "setting": "303.15 K, w1 = 0.1", "result": "1061.9 ± 1.2", "unit": "kg/m3"},
      {"measurement": "viscosity", "setting": "303.15 K, w1 = 0.1", "result": "0.9804 ± 0.023", "unit": "mPa·s"},
      {"measurement": "mass density", "setting": "303.15 K, w1 = 0.2", "result": "1133.3 ± 1.3", "unit": "kg/m3"},
      {"measurement": "viscosity", "setting": "303.15 K, w1 = 0.2", "result": "1.229 ± 0.028", "unit": "mPa·s"},
      {"measurement": "mass density", "setting": "303.15 K, w1 = 0.3", "result": "1211.7 ± 1.4", "unit": "kg/m3"},
      {"measurement": "viscosity", "setting": "303.15 K, w1 = 0.3", "result": "1.601 ± 0.036", "unit": "mPa·s"},
      {"measurement": "mass density", "setting": "313.15 K, w1 = 0.1", "result": "1056.8 ± 1.3", "unit": "kg/m3"},
      {"measurement": "viscosity", "setting": "313.15 K, w1 = 0.1", "result": "0.7896 ± 0.018", "unit": "mPa·s"},
      {"measurement": "mass density", "setting": "313.15 K, w1 = 0.2", "result": "1126.9 ± 1.3", "unit": "kg/m3"},
      {"measurement": "viscosity", "setting": "313.15 K, w1 = 0.2", "result": "0.9887 ± 0.023", "unit": "mPa·s"},
      {"measurement": "mass density", "setting": "313.15 K, w1 = 0.3", "result": "1204.3 ± 1.4", "unit": "kg/m3"},
      {"measurement": "viscosity", "setting": "313.15 K, w1 = 0.3", "result": "1.306 ± 0.029", "unit": "mPa·s"},
      {"measurement": "mass density", "setting": "323.15 K, w1 = 0.1", "result": "1051.8 ± 1.3", "unit": "kg/m3"},
      {"measurement": "viscosity", "setting": "323.15 K, w1 = 0.1", "result": "0.661 ± 0.016", "unit": "mPa·s"},
      {"measurement": "mass density", "setting": "323.15 K, w1 = 0.2", "result": "1121.1 ± 1.3", "unit": "kg/m3"},
      {"measurement": "viscosity", "setting": "323.15 K, w1 = 0.2", "result": "0.8311 ± 0.019", "unit": "mPa·s"},
      {"measurement": "mass density", "setting": "323.15 K, w1 = 0.3", "result": "1198 ± 2", "unit": "kg/m3"},
      {"measurement": "viscosity", "setting": "323.15 K, w1 = 0.3", "result": "1.1 ± 0.025", "unit": "mPa·s"},
      {"measurement": "mass density", "setting": "333.15 K, w1 = 0.1", "result": "1046.3 ± 1.3", "unit": "kg/m3"},
      {"measurement": "viscosity", "setting": "333.15 K, w1 = 0.1", "result": "0.5598 ± 0.014", "unit": "mPa·s"},
      {"measurement": "mass density", "setting": "333.15 K, w1 = 0.2", "result": "1115.3 ± 1.4", "unit": "kg/m3"},
      {"measurement": "viscosity", "setting": "333.15 K, w1 = 0.2", "result": "0.7105 ± 0.017", "unit": "mPa·s"},
      {"measurement": "mass density", "setting": "333.15 K, w1 = 0.3", "result": "1190.7 ± 1.4", "unit": "kg/m3"},
      {"measurement": "viscosity", "setting": "333.15 K, w1 = 0.3", "result": "0.9426 ± 0.022", "unit": "mPa·s"},
      {"measurement": "mass density", "setting": "343.15 K, w1 = 0.1", "result": "1039.6 ± 1.3", "unit": "kg/m3"},
      {"measurement": "viscosity", "setting": "343.15 K, w1 = 0.1", "result": "0.4902 ± 0.012", "unit": "mPa·s"},
      {"measurement": "mass density", "setting": "343.15 K, w1 = 0.2", "result": "1108.8 ± 1.4", "unit": "kg/m3"},
      {"measurement": "viscosity", "setting": "343.15 K, w1 = 0.2", "result": "0.6409 ± 0.015", "unit": "mPa·s"},
      {"measurement": "mass density", "setting": "343.15 K, w1 = 0.3", "result": "1184.2 ± 1.5", "unit": "kg/m3"},
      {"measurement": "viscosity", "setting": "343.15 K, w1 = 0.3", "result": "0.8467 ± 0.02", "unit": "mPa·s"}
    ]}
  ]
}
